# From patent US9302999B2, “Substituted triazoles as herbicides” (E. I. DU PONT DE NEMOURS AND COMPANY, priority 2012, dated 2016)
# Experiments:
# Assay type in all cases: in vivo
# [1] = system: dayflower, VA (Virginia (VA) dayflower, Commelina virginica); assay: Test F pre-/postemergence: dayflower, VA
# Description: (§1) Seeds of plant species selected from corn (Zea mays), soybean (Glycine max), velvetleaf (Abutilon theophrasti), lambsquarters (Chenopodium album), poinsettia, wild (wild poinsettia, Euphorbia heterophylla), pigweed, palmer (palmer pigweed, Amaranthus palmeri), waterhemp (common waterhemp, Amaranthus rudis), surinam grass (Brachiaria decumbens), crabgrass, Brazil (Brazilian crabgrass, Digitaria horizontalis), panicum, fall (fall panicum Panicum dichotomiflorum), crabgrass, large (large crabgrass, Digitaria sanguinalis), foxtail, giant (giant foxtail, Setaria faberii), foxtail, green (green foxtail Setaria viridis), goosegrass (Eleusine indica), ragweed (common ragweed, Ambrosia elatior), barnyardgrass (Echinochloa crus-galli), sandbur (southern sandbur, Cenchrus echinatus), arrowleaf sida (Sida rhombifolia), ryegrass, Italian (Italian ryegrass, Lolium multiflorum), dayflower, VA (Virginia (VA) dayflower, Commelina virginica), field bindweed (Convolvulus arvensis), cocklebur (common cocklebur, Xanthium strumarium), morningglory (Ipomoea coccinea), nightshade (eastern black nightshade, Solanum ptycanthum), kochia (Kochia scoparia), nutsedge, yellow (yellow nutsedge, Cyperus esculentus), johnsongrass (Sorghum halepense), smartweed (ladysthumb smartweed, Polygonum persicaria), and beggarticks (hairy beggarticks, Bidens pilosa), were planted into a silt loam soil and treated preemergence with test chemicals formulated in a non-phytotoxic solvent mixture which included a surfactant. At the same time, plants selected from these crop and weed species and also pigweed (Amaranthus retroflexus), waterhemp_RES1 (ALS/Triazine resistant common waterhemp, Amaranthus rudis) and waterhemp_RES2 (ALS/HPPD resistant common waterhemp, Amaranthus rudis) were planted in pots containing a planting medium comprising spaghnum peat moss, vermiculite, wetting agent and starter nutrients treated with postemergence applications of some of the test chemicals formulated in the same manner. Plants ranged in height from 2 to 18 cm for postemergence treatments (1- to 4-leaf stage).
# (§2) Treated plants and controls were maintained in a greenhouse for 14 to 21 days, after which time all species were compared to controls and visually evaluated. Plant response ratings, summarized in Table E, are based on a scale of 0 to 100 where 0 is no effect and 100 is complete control. A dash (-) response means no test result.
# [2] = system: pigweed, palmer (palmer pigweed, Amaranthus palmeri); assay: Test F pre-/postemergence: pigweed, palmer
# Description: as §1, §2
# [3] = system: barnyardgrass (Echinochloa crus-galli); assay: Test F pre-/postemergence: barnyardgrass
# Description: as §1, §2
# [4] = system: lambsquarters (Chenopodium album); assay: Test F pre-/postemergence: lambsquarters; settings: Preemergence
# Description: as §1, §2
# [5] = system: field bindweed (Convolvulus arvensis); assay: Test F pre-/postemergence: field bindweed
# Description: as §1, §2
# [6] = Postemergence, 250 g ai/ha, scale 0 to 100
# [7] = Postemergence, 16 g ai/ha, scale 0 to 100
# [8] = Postemergence, 31 g ai/ha, scale 0 to 100
# [9] = Postemergence, 62 g ai/ha, scale 0 to 100
# [10] = Postemergence, 125 g ai/ha, scale 0 to 100
# [11] = Preemergence, 16 g ai/ha, scale 0 to 100, 0 no effect, 100 complete control
# [12] = Preemergence, 31 g ai/ha, scale 0 to 100, 0 no effect, 100 complete control
# [13] = Preemergence, 62 g ai/ha, scale 0 to 100
# [14] = Preemergence, 125 g ai/ha, scale 0 to 100
# [15] = Preemergence, 250 g ai/ha, scale 0 to 100
# [16] = 16 g ai/ha, scale 0 to 100, 0 no effect, 100 complete control
# [17] = 31 g ai/ha, scale 0 to 100, 0 no effect, 100 complete control
# [18] = Postemergence, 8 g ai/ha, scale 0 to 100
compound,measurement,setting,value
CCc1nn(-c2ccc(C(F)(F)F)cc2)nc1Oc1ccnc(C(F)(F)F)c1 [Compound 169],"Plant response rating, Dayflower, VA",[1]; [6],20
same,"Plant response rating, Dayflower, VA",[1]; [7],10
same,"Plant response rating, Dayflower, VA",[1]; [8],10
same,"Plant response rating, Dayflower, VA",[1]; [9],10
same,"Plant response rating, Dayflower, VA",[1]; [10],10
same,"Plant response rating, Dayflower, VA",[1]; [11],0
same,"Plant response rating, Dayflower, VA",[1]; [12],5
same,"Plant response rating, Dayflower, VA",[1]; [13],10
same,"Plant response rating, Dayflower, VA",[1]; [14],65
same,"Plant response rating, Dayflower, VA",[1]; [15],75
same,"Plant response rating, Pigweed, Palmer",[2]; [6],100
same,"Plant response rating, Pigweed, Palmer",[2]; [7],50
same,"Plant response rating, Pigweed, Palmer",[2]; [8],50
same,"Plant response rating, Pigweed, Palmer",[2]; [9],90
same,"Plant response rating, Pigweed, Palmer",[2]; [10],100
same,"Plant response rating, Pigweed, Palmer",[2]; [11],35
same,"Plant response rating, Pigweed, Palmer",[2]; [12],100
same,"Plant response rating, Pigweed, Palmer",[2]; [14],100
same,"Plant response rating, Pigweed, Palmer",[2]; [15],100
same,"Plant response rating, Barnyardgrass",[3]; [6],40
same,"Plant response rating, Barnyardgrass",[3]; [7],0
same,"Plant response rating, Barnyardgrass",[3]; [8],0
same,"Plant response rating, Barnyardgrass",[3]; [9],15
same,"Plant response rating, Barnyardgrass",[3]; [10],25
same,"Plant response rating, Barnyardgrass",[3]; [11],0
same,"Plant response rating, Barnyardgrass",[3]; [12],0
same,"Plant response rating, Barnyardgrass",[3]; [13],20
same,"Plant response rating, Barnyardgrass",[3]; [14],60
same,"Plant response rating, Barnyardgrass",[3]; [15],95
same,"Plant response rating, Lambsquarters",[4]; [16],0
same,"Plant response rating, Lambsquarters",[4]; [17],30
same,"Plant response rating, Lambsquarters","[4]; 62 g ai/ha, scale 0 to 100",98
same,"Plant response rating, Lambsquarters","[4]; 125 g ai/ha, scale 0 to 100",98
same,"Plant response rating, Lambsquarters","[4]; 250 g ai/ha, scale 0 to 100",100
same,"Plant response rating, Field Bindweed",[5]; [6],55
same,"Plant response rating, Field Bindweed",[5]; [7],20
same,"Plant response rating, Field Bindweed",[5]; [8],20
same,"Plant response rating, Field Bindweed",[5]; [9],30
same,"Plant response rating, Field Bindweed",[5]; [10],35
same,"Plant response rating, Field Bindweed",[5]; [11],0
same,"Plant response rating, Field Bindweed",[5]; [12],0
same,"Plant response rating, Field Bindweed",[5]; [14],20
same,"Plant response rating, Field Bindweed",[5]; [15],80
Cc1nn(-c2ccnc(Cl)c2)nc1Cc1ccnc(C(F)(F)F)c1 [Compound 141],"Plant response rating, Dayflower, VA",[1]; [18],10
same,"Plant response rating, Dayflower, VA",[1]; [7],10
same,"Plant response rating, Dayflower, VA",[1]; [8],35
same,"Plant response rating, Dayflower, VA",[1]; [9],60
same,"Plant response rating, Dayflower, VA",[1]; [10],75
same,"Plant response rating, Pigweed, Palmer",[2]; [18],95
same,"Plant response rating, Pigweed, Palmer",[2]; [7],95
same,"Plant response rating, Pigweed, Palmer",[2]; [8],95
same,"Plant response rating, Pigweed, Palmer",[2]; [9],100
same,"Plant response rating, Pigweed, Palmer",[2]; [10],100
same,"Plant response rating, Barnyardgrass",[3]; [18],10
same,"Plant response rating, Barnyardgrass",[3]; [7],20
same,"Plant response rating, Barnyardgrass",[3]; [8],20
same,"Plant response rating, Barnyardgrass",[3]; [9],30
same,"Plant response rating, Barnyardgrass",[3]; [10],40
same,"Plant response rating, Field Bindweed",[5]; [18],50
same,"Plant response rating, Field Bindweed",[5]; [7],60
same,"Plant response rating, Field Bindweed",[5]; [8],70
same,"Plant response rating, Field Bindweed",[5]; [9],80
same,"Plant response rating, Field Bindweed",[5]; [10],85
CCCc1nn(-c2ccc(F)c(F)c2)nc1Oc1ccnc(C(F)(F)F)c1 [Compound 172],"Plant response rating, Dayflower, VA",[1]; [6],50
same,"Plant response rating, Dayflower, VA",[1]; [8],20
same,"Plant response rating, Dayflower, VA",[1]; [10],30
same,"Plant response rating, Dayflower, VA",[1]; [12],40
same,"Plant response rating, Dayflower, VA",[1]; [14],70
same,"Plant response rating, Dayflower, VA",[1]; [15],90
same,"Plant response rating, Pigweed, Palmer",[2]; [6],100
same,"Plant response rating, Pigweed, Palmer",[2]; [8],100
same,"Plant response rating, Pigweed, Palmer",[2]; [10],100
same,"Plant response rating, Pigweed, Palmer",[2]; [12],100
same,"Plant response rating, Pigweed, Palmer",[2]; [14],100
same,"Plant response rating, Pigweed, Palmer",[2]; [15],100
same,"Plant response rating, Barnyardgrass",[3]; [6],85
same,"Plant response rating, Barnyardgrass",[3]; [8],20
same,"Plant response rating, Barnyardgrass",[3]; [10],50
same,"Plant response rating, Barnyardgrass",[3]; [12],70
same,"Plant response rating, Barnyardgrass",[3]; [14],100
same,"Plant response rating, Barnyardgrass",[3]; [15],100
same,"Plant response rating, Lambsquarters",[4]; [17],50
same,"Plant response rating, Lambsquarters","[4]; 125 g ai/ha, scale 0 to 100",98
same,"Plant response rating, Lambsquarters","[4]; 250 g ai/ha, scale 0 to 100",98
same,"Plant response rating, Field Bindweed",[5]; [6],60
same,"Plant response rating, Field Bindweed",[5]; [8],25
same,"Plant response rating, Field Bindweed",[5]; [10],60
same,"Plant response rating, Field Bindweed",[5]; [12],5
same,"Plant response rating, Field Bindweed",[5]; [14],95
same,"Plant response rating, Field Bindweed",[5]; [15],95
CCc1nn(-c2ccc(F)cc2)nc1Cc1ccnc(C(F)(F)F)c1 [Compound 154],"Plant response rating, Dayflower, VA",[1]; [11],0
same,"Plant response rating, Dayflower, VA",[1]; [12],0
same,"Plant response rating, Dayflower, VA",[1]; [13],25
same,"Plant response rating, Dayflower, VA",[1]; [14],70
same,"Plant response rating, Dayflower, VA",[1]; [15],90
same,"Plant response rating, Pigweed, Palmer",[2]; [11],100
same,"Plant response rating, Pigweed, Palmer",[2]; [12],100
same,"Plant response rating, Pigweed, Palmer",[2]; [14],100
same,"Plant response rating, Pigweed, Palmer",[2]; [15],100
same,"Plant response rating, Barnyardgrass",[3]; [11],0
same,"Plant response rating, Barnyardgrass",[3]; [12],5
same,"Plant response rating, Barnyardgrass",[3]; [13],85
same,"Plant response rating, Barnyardgrass",[3]; [14],90
same,"Plant response rating, Barnyardgrass",[3]; [15],100
same,"Plant response rating, Lambsquarters",[4]; [16],0
same,"Plant response rating, Lambsquarters",[4]; [17],30
same,"Plant response rating, Lambsquarters","[4]; 62 g ai/ha, scale 0 to 100",75
same,"Plant response rating, Lambsquarters","[4]; 125 g ai/ha, scale 0 to 100",98
same,"Plant response rating, Lambsquarters","[4]; 250 g ai/ha, scale 0 to 100",98
same,"Plant response rating, Field Bindweed",[5]; [11],0
same,"Plant response rating, Field Bindweed",[5]; [12],0
same,"Plant response rating, Field Bindweed",[5]; [13],5
same,"Plant response rating, Field Bindweed",[5]; [14],35
same,"Plant response rating, Field Bindweed",[5]; [15],95
